Assay results as given in patent publication US5476933A, “Azepine synthesis via a diels-alder reaction” (priority 1994, dated 1995).
Where two headings read alike, the source gives them in different places.

Assays:
[1] = test system: glycine binding site of the NMDA receptor; conditions: cited from earlier work; for affinity / antagonism at the glycine binding site, in words: literature
[2] = literature; cited from earlier work
[3] = target: T1, glycine binding site of the NMDA receptor (Rattus norvegicus, UniProt P35439); assay: 1 μM glycine-stimulated [3H]-MK-801 binding, rat brain membrane homogenates; conditions: for IC50: rat brain homogenates, [3H]-MK-801 binding, 1 μM glycine; for activity (glycine receptor antagonism), in words: structure-activity statements
T1 construct: rat brain membrane homogenates which are enriched in NMDA receptors; tissue Pel-Freez, Rogers, Ark; host or cells: whole rat brain, washed membrane homogenate
Procedure: ^a Experiments described herein utilizing rat brain homogenates and a
The assay is conducted using rat brain membrane homogenates which are enriched in NMDA receptors. The membranes are prepared as follows. Frozen rat brains (obtained from Pel-Freez, Rogers, Ark.) are homogenized in 15 volumes (w/v) of ice cold 0.32M sucrose. The homogenate is spun at 1,000×g for ten minutes. The supernatant is collected and spun for 20 minutes at 44,000×g. The pellet is suspended in 15 volumes of water (relative to original brain weight). The homogenate is again spun at 44,000×g for twenty minutes. The pellet is resuspended in 5 volumes of water and the suspension is freeze-thawed 2 times. After the final thaw cycle, the suspension is brought to 15 volumes with water and spun at 44,000×g for twenty minutes. The pellet is resuspended in 5 volumes of ice-cold 10 mM HEPES, and is titrated to pH 7.4 with KOH containing 0.04% Triton X-100. Membranes are incubated with the Triton/HEPES buffer at 37° C. for 15 minutes. The volume is then brought to 15 with ice-cold 10 mM HEPES, pH 7.4, and spun/washed three times with spins of 44,000×g between washes. The final pellet is suspended in three volumes of 50 mM HEPES, pH 7.4 and the protein concentration is determined with a standard dye-binding protein assay (Bio-Rad, Richmond, Calif.). The suspension is stored at -80° C. until used. Only HPLC grade water is used for all buffers and suspensions/washings. The extensive washings are necessary to remove as much endogenous glycine from the membrane preparation as possible.
Nonspecific binding is defined as the […] presence of PCP (final concentration: 100 μM). […] A 500 nM concentration (final) of 5,7-dichlorokynurenic (DCK) acid is added to all assay tubes. This concentration of the glycine antagonist DCK "buffers" most of the residual endogenous glycine that is not removed by the extensive washing steps that are carried out during the membrane preparation procedure.
The assays are incubated for 120 minutes at room temperature after which time the membrane-bound radioactivity is isolated from the free radioactivity by vacuum filtration through Whatman glass fiber filters that had been pretreated with 0.3% polyethyleneimine. Filtration is accomplished using a Brandel 48 well cell harvester. Filtered membranes are washed three times with 3 mL each of ice cold buffer. Filters are transferred to scintillation vials and 5 mL of scintillation cocktail is added. The vials are shaken overnight and the radioactivity is counted by liquid scintillation spectroscopy. The assays are done in triplicate and all experiments are conducted at least three times.
Inhibition dose response curves are constructed using increasing concentrations of glycine antagonists from 5 nM to 330 μM.
After constructing inhibition dose response curves and determination of glycine reversibility, Ki values for the glycine antagonists are calculated using the Cheng and Prusoff equation employing the experimentally determined IC50 values, the known concentration of glycine in the assay (1 μM) and the known affinity of glycine for the glycine binding site of the NMDA receptor (100 nM).
Binding Assays and In Vivo Studies.

glycine/NMDA receptor = target: T2, glycine/NMDA receptor (Rattus norvegicus, UniProt P35439); assay: electrophysiology using Xenopus oocytes; type: cell-based
T2 construct: expressed in transfected cells; host or cells: Xenopus oocytes (RNA injected)

[4] = crossing of the blood/brain barrier; conditions: inferred from Ki and MES ED50
male Swiss/Webster mice = assay: maximum electroshock-induced seizure (MES) assay; type: in vivo, mouse; conditions: anticonvulsant, MES in mice; for ED50: Mus musculus, iv
Procedure: The anticonvulsant activity of the glycine antagonists may be assessed in the maximum electroshock-induced seizure (MES) assay in mice. […] The seizure stimulus parameters are 50 mA, 60 Hz, rectangular pulse, width 0.8 msec, duration 200 msec. Tonic hind limb extension observed after application of the electrical stimulus is recorded as occurrence of seizure.

rodents = conditions: literature; cited from earlier work
[5] = test system: neurons in brain ischemia; conditions: literature; cited from earlier work
[6] = target: strychnine insensitive glycine site associated with the NMDA receptor complex; conditions: Swartz et al., cited from earlier work; for Kb: Mol. Pharmacol. 41:1130-1141 (1992), footnote d
guinea pig ileum = guinea pig ileum contraction; footnote c; cited from earlier work
[7] = target: strychnine insensitive glycine site associated with the NMDA receptor complex; conditions: rat brain homogenates, [3H]-glycine binding; footnote b; cited from earlier work
pigeons = conditions: literature; cited from earlier work
[8] = from electrophysiology using Xenopus oocytes unless otherwise noted, read-out: Ki

O=C(O)c1cc(O)c2ccc(Cl)cc2n1 [7-Cl-kynurenic acid]
affinity / antagonism at the glycine binding site, in words [1]: relatively high receptor binding affinity in vitro
blood/brain barrier penetration, in words [2]: cannot penetrate the blood/brain barrier

Cc1ccc2[nH]c(=O)c(O)cc(=O)c2c1C [Compound 109, 6,7-dimethyl-3-hydroxy-1H-1-benzazepine-2,5-dione]
IC50 [3]: inactive

Cc1cccc2[nH]c(=O)c(O)cc(=O)c12 [Compound 93, 3-Hydroxy-6-methyl-1H-1-benzazepine-2,5-dione]
IC50 ([3]; read-out: IC50): 196000 nM

O=C(O)c1cc2ccccc2[nH]1 [indole-2-carboxylic acid]
affinity / antagonism at the glycine binding site, in words [1]: relatively high receptor binding affinity in vitro
blood/brain barrier penetration, in words [2]: cannot penetrate the blood/brain barrier

Cc1cc(C)c2[nH]c(=O)c(O)cc(=O)c2c1 [Compound 44, 3-Hydroxy-7,9-dimethyl-1H-1-benzazepine-2,5-dione]
IC50 [3]: inactive

Cc1cc2[nH]c(=O)c(O)cc(=O)c2cc1C [Compound 46, 3-Hydroxy-7,8-dimethyl-1-benzazepine-2,5-dione]
IC50 ([3]; read-out: IC50): 7300 nM

O=c1[nH]c2cc(F)ccc2c(=O)cc1O [Compound 5]
IC50 ([3]; read-out: IC50): 1700 nM
activity (glycine receptor antagonism), in words [3]: enhanced activity

O=c1cc(O)c(=O)[nH]c2c1CCCC2 [Compound 61, 3-Hydroxy-6,7,8,9-tetrahydro-1H-1-benzazepine-2,5-dione]
Ki (glycine/NMDA receptor; [8]): 1650 nM
IC50 ([3]; read-out: IC50): 34000 nM
crossing the blood-brain-barrier, relative to 6,7-dichloro-5-nitro-1,4-dihydroquinoxaline-2,3-dione [4]: about 100 times
ED50 (male Swiss/Webster mice): 8 mg/kg

O=C(O)[C@@H]1C[C@H](CP(=O)(O)O)CCN1 [CGS 19755]
PCP-like behavioral effects, in words (rodents): adverse PCP-like behavioral side effects
neuroprotective efficacy, in words [5]: neuroprotective efficacy

O=c1[nH]c2ccccc2c(=O)cc1O [Compound 1, 3-hydroxy-1H-1-benzazepine-2,5-dione]
IC50 ([3]; read-out: IC50): 7800 nM
Kb [6]: 3000 nM
antagonism, in words [6]: antagonists at the strychnine insensitive glycine site

Cc1ccc2c(=O)cc(O)c(=O)[nH]c2c1 [Compound 3]
IC50 ([3]; read-out: IC50): 3400 nM
activity (glycine receptor antagonism), in words [3]: enhanced activity
Kb [6]: 470 nM
antagonism, in words [6]: antagonists at the strychnine insensitive glycine site

O=c1[nH]c2cc(Cl)c(Cl)c([N+](=O)[O-])c2[nH]c1=O [6,7-dichloro-5-nitro-1,4-dihydroquinoxaline-2,3-dione]
Ki (glycine/NMDA receptor): 3.3 nM
ED50 (MES) (male Swiss/Webster mice): 4 to 5 mg/kg

Cc1cc2[nH]c(=O)c(O)cc(=O)c2c(C)c1[N+](=O)[O-] [Compound 99, 6,8-Dimethyl-3-hydroxy-7-nitro-1H-1-benzazepine-2,5-dione]
IC50 ([3]; read-out: IC50): 69500 nM

O=C(O)C1CC2CC(CP(=O)(O)O)CCC2CN1 (stereo not shown) [LY274614]
neuroprotective efficacy, in words [5]: neuroprotective efficacy

O=c1[nH]c2ccc([N+](=O)[O-])cc2c(=O)cc1O [Compound 11]
IC50 ([3]; read-out: IC50): 300000 nM

NCC(=O)O [glycine]
Kd ([1]; used in Cheng and Prusoff equation, read-out: known affinity of glycine for the glycine binding site of the NMDA receptor): 100 nM

CC1Cc2[nH]c(=O)c(O)cc(=O)c2CC1C (stereo not shown) [Compound 81, 7,8-dimethyl-3-hydroxy-6,7,8,9-tetrahydro-1H-1-benzazepine-2,5-dione]
Ki (glycine/NMDA receptor; [8]): 177 nM
IC50 ([3]; read-out: IC50): 9280 nM
ED50 (male Swiss/Webster mice): 6 mg/kg

[N-]=[N+]=Nc1ccc2[nH]c(=O)c(O)cc(=O)c2c1 [Compound 14]
IC50 [3]: Inactive

O=C(Nc1ccc2[nH]c(=O)c(O)cc(=O)c2c1)C(F)(F)F [Compound 13]
IC50 [3]: Inactive

Cc1ccc2[nH]c(=O)c(O)cc(=O)c2c1 [Compound 2]
Kb [6]: 9500 nM
antagonism, in words [6]: antagonists at the strychnine insensitive glycine site

O=C(O)c1cc(O)c2c(Cl)cc(Cl)cc2n1 [5,7-dichlorokynurenic acid (DCK), 5,7-dichlorokynurenic acid]
affinity / antagonism at the glycine binding site, in words [1]: relatively high receptor binding affinity in vitro

O=c1[nH]c2cc(C(F)(F)F)ccc2c(=O)cc1O [Compound 16]
IC50 ([3]; read-out: IC50): 3400 nM
activity (glycine receptor antagonism), in words [3]: enhanced activity

O=c1cc(O)c(=O)[nH]c2c1CC(Cl)C(Cl)C2 (stereo not shown) [Compound 74, 3-Hydroxy-7,8-dichloro-6,7,8,9-tetrahydro-1H-1-benzazepine-2,5-dione]
Ki (glycine/NMDA receptor; [8]): 30 nM
IC50 ([3]; read-out: IC50): 3600 nM
ED50 (male Swiss/Webster mice): 30 mg/kg

CC(=O)Nc1ccc2[nH]c(=O)c(O)cc(=O)c2c1 [Compound 12]
IC50 ([3]; read-out: IC50): 92500 nM

NC1CCN(O)C1=O (stereo not shown) [HA-966]
affinity / antagonism at the glycine binding site, in words [1]: partial agonist with micromolar affinity for the glycine binding site
blood/brain barrier penetration, in words [2]: sufficiently penetrates the blood/brain barrier

Cc1cccc2c(=O)cc(O)c(=O)[nH]c12 [Compound 43, 3-Hydroxy-9-methyl-1H-1-benzazepine-2,5-dione]
IC50 [3]: inactive

O=c1[nH]c2cc(Br)ccc2c(=O)cc1O [Compound 7]
IC50 (guinea pig ileum): 1000 nM
IC50 ([3]; read-out: IC50): 1300 nM
activity (glycine receptor antagonism), in words [3]: enhanced activity
IC50 [7]: 97 nM

c1ccc(C2(N3CCCCC3)CCCCC2)cc1 [PCP, phencyclidine]
katalepsy, in words (pigeons): characteristic katalepsy in pigeons
PCP-like behavioral effects, in words (rodents): behavioral excitation (hyperlocomotion)
neuroprotective efficacy, in words [5]: neuroprotective efficacy both in vitro and in vivo

O=c1[nH]c2cc(Cl)ccc2c(=O)cc1O [Compound 6]
IC50 (guinea pig ileum): 110 nM
IC50 ([3]; read-out: IC50): 2500 nM
activity (glycine receptor antagonism), in words [3]: enhanced activity
IC50 [7]: 30 nM

O=c1cc(O)c(=O)[nH]c2c1C1CCC2CC1 [Compound 87, 6,9-Ethano-3-hydroxy-6,7,8,9-tetrahydro-1H-1-benzazepine-2,5-dione]
Ki (glycine/NMDA receptor; [8]): 332 nM
IC50 ([3]; read-out: IC50): 6700 nM
ED50 (male Swiss/Webster mice): 8 mg/kg

O=c1[nH]c2ccc(Br)cc2c(=O)cc1O [Compound 15]
IC50 [3]: Inactive

O=c1cc(O)c(=O)[nH]c2c1C1CCC2C1 (stereo not shown) [Compound 70, 3-hydroxy-6,9-methano-6,7,8,9-tetrahydro-1H-1-benzazepine-2,5-dione]
Ki ([3]; from binding assays (footnote d of Table 2)): 760 nM
IC50 ([3]; read-out: IC50): 8400 nM

Cc1cc(C)c2c(=O)cc(O)c(=O)[nH]c2c1 [Compound 97, 6,8-Dimethyl-3-hydroxy-1H-1-benzazepine-2,5-dione]
IC50 ([3]; read-out: IC50): 26000 nM

Cc1ccc(C)c2c(=O)cc(O)c(=O)[nH]c12 [Compound 45, 3-Hydroxy-6,9-dimethyl-1H-1-benzazepine-2,5-dione]
IC50 [3]: inactive

CC1c2c([nH]c(=O)c(O)cc2=O)CC(Cl)C1Cl (stereo not shown) [Compound 112, 7,8-dichloro-3-hydroxy-6-methyl-6,7,8,9-tetrahydro,1H-1-benzazepine-2,5-dione]
Ki (glycine/NMDA receptor; [8]): 7 nM
IC50 ([3]; read-out: IC50): 380 nM
